Data as given in the NIST ThermoML archive (doi:10.1016/j.fluid.2005.09.010).
Numbers after ± are expanded uncertainties.

Details: Liquid; for mass density: 298.15 K, 101.33 kPa

Structure (SMILES) | mass density | vapor or sublimation pressure (375.52 K) | vapor or sublimation pressure (353.2 K) | vapor or sublimation pressure (353.85 K) | vapor or sublimation pressure (322.4 K)
C1COCCO1 [1,4-dioxane] | 1027.85 ± 0.23 kg/m3 | 101.3 ± 4.1 kPa |  |  | 
c1ccccc1 [benzene] | 873.55 ± 0.22 kg/m3 |  | 101.3 ± 4.1 kPa |  | 
C1CCCCC1 [cyclohexane] | 773.65 ± 0.32 kg/m3 |  |  | 101.3 ± 4.1 kPa | 
C1CCCC1 [cyclopentane] | 739.74 ± 0.79 kg/m3 |  |  |  | 101.3 ± 4.1 kPa
